Source: patent US20250195553A1, “Use of Genipin-1-B-D-Gentiobioside in Preparation of Drug” (Guizhou Bailing Group Pharmaceutical Co., Ltd., priority 2023, published 2025)
Like-named read-outs stand apart in the source and are kept apart here.

Legend:
[1] = tested on: Mycoplasma Pneumoniae (MP); assay: Mycoplasma pneumoniae-infected mouse pneumonia model: lung index; format: in vivo, BALB/C mice; design: First Batch Inhibition Rate: unit not given here
[2] = tested on: Mycoplasma Pneumoniae (MP); assay: Inflammatory factors in lung tissue of MP-infected mice (ELISA); format: in vivo, BALB/C mice; settings: 42 mg/kg
Description: […] Each group consisted of 10 mice, with an equal number of males and females. Except for the normal control group, all mice were lightly anesthetized with isoflurane and infected intranasally with Mycoplasma Pneumoniae (50 μl per mouse) for three consecutive days. On the day of infection, each treatment group received nebulized medication once daily for four consecutive days, while the normal control group and model control group received nebulized saline under the same conditions. On the fifth day, the mice were weighed, sacrificed by cervical dislocation, and their lung tissues were dissected, weighed, and used to calculate the lung index and lung index inhibition rate; measure the levels of inflammatory factors in the lung tissue; measure the serum CRP levels; and conduct pathological examinations of the lung tissue. The results were statistically analyzed using the t-test for intergroup comparisons.
(1) Sample Collection and Storage: Tissue Homogenate Samples: After weighing, lung tissues were collected from 8 mice in each group and stored at −80° C. The MP Fastprep-24 5G Rapid Sample Preparation System was used to homogenize the tissues, followed by centrifugation at […] and 3000 r/min for 10 minutes using a low-temperature high-speed centrifuge. The supernatant was then aspirated, aliquoted, and stored at −80° C. for future use, avoiding repeated freeze-thaw cycles.
(2) The microplate, which had been equilibrated to room temperature, was removed from the sealed bag. Different concentrations of standards were added to the corresponding wells, with 50 μL per well. For experimental samples, 10 μL of sample was added to each well, followed by 40 μL of diluent. Except for the blank wells, 100 μL of HRP (Horseradish Peroxidase) was added to each well. The reaction wells were sealed with sealing tape and incubated at 37° C. for 1 hour. The plate was then washed with wash buffer four times. After the final wash, the plate was inverted and all residual liquid was patted dry on absorbent paper. 50 μL of both Substrate A and Substrate B were added to each well. The reaction wells were then sealed with sealing tape and incubated at 37° C. for 15 minutes. After that, 50 μL of stop solution was added to each well, and the absorbance at 450 nm was measured using a microplate reader within 15 minutes. The results were then calculated.

[3] = tested on: Mycoplasma Pneumoniae (MP); assay: Pathological changes in lung tissue of MP-infected mice (HE staining); format: in vivo, BALB/C mice; design: Alveolitis Lesion Degree / Bronchial Damage / Histological Damage Degree: scale not given here; settings: Azithromycin Group
Description: Fifty BALB/C mice, weighing 14±1 g, were randomly divided into five groups: a normal control group, a model control group, an azithromycin control group, a high-dose Genipin-1-β-D-gentiobioside group (75 mg/ml) with 15-minute nebulization, and a low-dose Genipin-1-β-D-gentiobioside group (37.5 mg/ml) with 15-minute nebulization. Each group consisted of 10 mice, with an equal number of males and females. Except for the normal control group, all mice were lightly anesthetized with isoflurane and infected intranasally with Mycoplasma Pneumoniae (50 μl per mouse) for three consecutive days. On the day of infection, each treatment group received nebulized medication once daily for four consecutive days, while the normal control group and model control group received nebulized saline under the same conditions. On the fifth day, the mice were weighed, sacrificed by cervical dislocation, and their lung tissues were dissected, weighed, and used to calculate the lung index and lung index inhibition rate; measure the levels of inflammatory factors in the lung tissue; measure the serum CRP levels; and conduct pathological examinations of the lung tissue. The results were statistically analyzed using the t-test for intergroup comparisons.
2.4 Pathological Changes in Mouse Lung Tissue (HE Staining Method)

[4] = tested on: Human Coronavirus OC43 (HCoV-OC43); format: in vivo; settings: mouse, in vivo
[5] = tested on: Human Coronavirus OC43 (HCoV-OC43); format: in vivo; settings: 90 mg/kg administration by gavage
[6] = tested on: Human Respiratory Syncytial Virus (RSV); assay: RSV viral load in mouse lung tissue (RT-PCR), nebulization; format: in vivo; settings: dosage 82.5 (mg/ml), nebulization time 25 min
Description: […] Each group consisted of 10 mice, with an equal number of males and females. Except for the normal control group, all mice were lightly anesthetized with isoflurane and infected with respiratory syncytial virus (RSV) via intranasal administration, with each mouse receiving 35 μl of the virus. On the day of infection, the treatment groups began inhalation administration. Each group received nebulization for 25 minutes once daily for four consecutive days. The normal control group and the model control group received nebulized saline under the same conditions. On the fifth day, after weighing, the mice were sacrificed by cervical dislocation, and their lung tissues were dissected, weighed, and used to calculate the lung index and lung index inhibition rate. The lung tissues were also retained for virus load, pathological examination, and inflammatory factor detection. The results were statistically analyzed using the t-test for intergroup comparisons.
After dissecting the mice, the lung tissues were collected and stored in separate containers at −80° C. in a low-temperature freezer. The lung tissues were then removed from the −80° C. freezer and placed in a clean mortar. A small amount of liquid nitrogen was poured into the mortar, and the tissues were ground into powder using a pestle. The powder was collected in a 1.5 ml centrifuge tube, and 1 ml of TRIzol Reagent was immediately added. The tube was gently tapped at the bottom to mix the sample and ensure it was resuspended as soon as possible. The centrifuge tube was then placed horizontally at room temperature and incubated for 20 minutes. Next, it was centrifuged at 4° C. and 12,000 rpm for 10 minutes. The clear supernatant was transferred to a new 1.5 ml centrifuge tube, and 0.2 ml of chloroform was added. The tube was tightly capped, vigorously shaken for 15 seconds, and then incubated at room temperature for 2-3 minutes until the liquid separated into layers. After centrifuging at 4° C. and 12,000 rpm for 15 minutes, the transparent supernatant was carefully transferred to a new 1.5 ml centrifuge tube. Then, 0.5 ml of isopropanol was added, mixed well, and incubated at room temperature for 30 minutes. Following centrifugation at 4° C. and 12,000 rpm for 10 minutes, the supernatant was discarded. The precipitate was gently washed with 1 ml of 75% ethanol (to allow the white precipitate to float slightly), and then centrifuged at 4° C. and 7,500 rpm for 5 minutes. The supernatant was completely aspirated, and the RNA precipitate was briefly dried for 5-10 minutes. The precipitate was then dissolved in 20 μl of DEPC (Diethylpyrocarbonate)-treated water and stored in a −80° C. low-temperature freezer.
Treatment of Control Nucleic Acid: DEPC-H2O was used as a negative control. For the positive control, a series of four concentrations were prepared by gradient dilution at 10^7, 10^6, 10^5, and 10^4 copies/ml.
Reagent Preparation: Mix n×18 μl of RSV nucleic acid fluorescent PCR detection mixture, n×1 μl of internal control, and n×1 μl of RT-PCR enzyme (where n is the number of reaction tubes). Shake vigorously for a few seconds and centrifuge at 3000 rpm for a few seconds.
Sample Addition: Dispense 20 μl of the above mixture into each PCR tube. Then, add 5 μl of sample nucleic acid extract, DEPC-H2O, and positive control to the respective PCR tubes. Tightly close the tube caps, centrifuge for a few seconds to ensure all liquids are at the bottom, and immediately proceed with PCR amplification.
PCR Amplification: Place the reaction tubes in a quantitative fluorescent PCR instrument. Set the cycling parameters as follows: 45° C. for 10 minutes; 95° C. for 15 minutes; then 40 cycles of 95° C. for 15 seconds→60° C. for 60 seconds. Single-point fluorescent detection is performed at 60° C., with a reaction volume of 25 μl.
Fluorescent Channel Selection: Select the FAM and HEX/VIC/JOE channels for detection. […]

[7] = tested on: Lipopolysaccharide (LPS)-induced pneumonia model in mice; assay: LPS-induced pneumonia model in mice, intravenous injection: lung index; format: in vivo, ICR mice; settings: 50 mg/kg i.v. once daily 2 days
Description: (§1) Sixty healthy mice, weighing 18˜20 g, half male and half female, were selected and randomly grouped after stratification by weight; they were divided into a normal control group, a model control group, three Genipin-1-β-D-gentiobioside dose groups (150 mg/kg/d, 75 mg/kg/d, 37.5 mg/kg/d), and a positive control drug Sivelestat Sodium 50 mg/kg/d group, with 10 mice in each group, half male and half female. After grouping, each treatment group was administered intravenously at 20 ml/kg once daily for 2 consecutive days, while the normal control group and model control group were injected with physiological saline. One hour after the second dose, except for the normal control group, the other groups were lightly anesthetized with isoflurane, and a 20 mg/ml LPS physiological saline solution was administered intranasally to the mice at 0.05 ml/mouse to induce the pneumonia model. Six hours after infection, the animals were sacrificed, dissected, and their lungs were removed and weighed to calculate the lung index (lung index=lung weight/body weight×100%).

[8] = tested on: Lipopolysaccharide (LPS)-induced pneumonia model in mice; assay: Inflammatory factors in lung tissue of LPS-induced pneumonia mice (ELISA); format: in vivo, ICR mice; settings: dosage 50 (mg/ml), i.v.
Description: as §1
(1) Sample Collection and Storage: Tissue homogenate samples: The lung tissues of mice were collected and weighed, including those from mice numbered 1, 2, 3, 6, 7, and 8 in each group. The tissues were stored at […] An ultrasonic cell disruptor was used to homogenize the tissues, followed by centrifugation at […] and 1000 r/min for 10 minutes using a low-temperature high-speed centrifuge. The supernatant was then collected, aliquoted, and stored at −80° C. for future use, avoiding repeated freeze-thaw cycles.
(2) The microwell plate, which had been equilibrated to room temperature, was removed from the sealed bag. Different concentrations of standards, experimental samples, or quality control samples were added to the corresponding wells, with 100 μL per well. The reaction wells were sealed with sealing tape and incubated at room temperature for 2 hours. The plate was then washed with wash buffer, repeating the operation four times. After the final wash, the plate was inverted and all residual liquid was patted dry on absorbent paper. Next, 100 μL of enzyme-labeled detection antibody was added to each microwell. The reaction wells were sealed again with sealing tape and incubated at room temperature for another 2 hours. The washing step was repeated as described above. Then, 100 μL of substrate solution was added to each microwell and incubated at room temperature for 30 minutes, protected from light. Within 30 minutes after adding 100 μL of stop solution to each microwell, the absorbance at 450 nm was measured using a microplate reader. The results were then calculated.

[9] = 42 mg/kg administration by gavage, first batch
[10] = 42 mg/kg administration by gavage

**Q.** With `CC[C@H]1OC(=O)[C@H](C)[C@@H](O[C@H]2C[C@@](C)(OC)[C@@H](O)[C@H](C)O2)[C@H](C)[C@@H](O[C@@H]2O[C@H](C)C[C@H](N(C)C)[C@H]2O)[C@](C)(O)C[C@@H](C)CN(C)[C@H](C)[C@@H](O)[C@]1(C)O` [Azithromycin, azithromycin, reference compound] as the molecule, how does the “First Batch Inhibition Rate” value [1, 9] read?
**A.** The value was 65.93.

**Q.** What about the “First Batch Lung Index” value [1, 9] of the same molecule?
**A.** The value was 0.77 ± 0.05.

**Q.** And the “Second Batch Inhibition Rate” value [1, 10]?
**A.** The value was 98.72.

**Q.** And the “Second Batch Lung Index” value [1, 10]?
**A.** Its value is 0.62 ± 0.09.

**Q.** And the “Second Batch Inhibition Rate” value ([1]; injection administration)?
**A.** The value was 98.26.

**Q.** What about the “Second Batch Lung Index” value ([1]; injection administration) of the same molecule?
**A.** Its value is 0.62 ± 0.06.

**Q.** What about the “Inflammatory Factor Levels in Lung Tissue IL-1β” value [2] of the same molecule?
**A.** The value was 144.98 ± 15.93 pg/mL.

**Q.** What about the “Inflammatory Factor Levels in Lung Tissue IL-6” value [2] of the same molecule?
**A.** Its value is 85.26 ± 25.59 pg/mL.

**Q.** And the “Inflammatory Factor Levels in Lung Tissue TNF-α” value [2]?
**A.** Its value is 345.86 ± 53.85 pg/mL.

**Q.** And the “Alveolitis Lesion Degree” value [3]?
**A.** The value was 59.70.

**Q.** What about the “Bronchial Damage” value [3] of the same molecule?
**A.** Its value is 54.80.

**Q.** And the “Histological Damage Degree” value [3]?
**A.** Its value is 2.43 ± 0.32.

**Q.** And the “Interstitial Inflammatory Cell Infiltration” value [3]?
**A.** Its value is 58.80.

**Q.** `CCN(CC)CCCC(C)Nc1ccnc2cc(Cl)ccc12` (stereo not drawn) [Chloroquine, Chloroquine Phosphate, reference compound] was tested. Which “Inhibition Rate (lung index)” value [4] did it give?
**A.** Its value is 42.72%.

**Q.** And the “Lung Index” value [4]?
**A.** The value was 0.80 ± 0.05 g lung weight × 100 g/body weight.

**Q.** And the “Inhibition Rate (lung index)” value [5]?
**A.** The value was 96.56%.

**Q.** What about the “Lung Index” value [5] of the same molecule?
**A.** Its value is 0.73 ± 0.11 g lung weight × 100 g/body weight.

**Q.** Which “Inhibition Rate (viral load)” value [6] does the source give for `NC(=O)c1ncn([C@@H]2O[C@H](CO)[C@@H](O)[C@H]2O)n1` [Ribavirin, reference compound] here?
**A.** Its value is 69.54%.

**Q.** What about the “Viral Load in lung tissue” value [6] of the same molecule?
**A.** The value was 17063.48 ± 16203.78 copies/ng.

**Q.** What does the source list for `CC(C)(C)C(=O)Oc1ccc(S(=O)(=O)Nc2ccccc2C(=O)NCC(=O)O)cc1` [Sivelestat Sodium, reference compound]?
**A.** Inhibition Rate (lung index) [7]: 85.50; Lung Index ([7]; 6 h after LPS): 0.86 ± 0.07 g/100 g body weight; Inflammatory Factor Levels in Lung Tissue IL-6 [8]: 15.79 ± 2.08 pg/mL; Inflammatory Factor Levels in Lung Tissue IL-10 [8]: 36.11 ± 4.87 pg/mL; Inflammatory Factor Levels in Lung Tissue TNF-α [8]: 98.88 ± 11.21 pg/mL
